4 compounds from ChEMBL document CHEMBL5038572, “Thermodynamic Dissection of Potency and Selectivity of Cytosolic Hsp90 Inhibitors” (J Med Chem, 2021) can be followed below.

SMILES strings stand for the structures. Activity calls are given as the source filed them. The calls are words filed in the database; no cut-off is given here. Where only a bound is given, the exact number is not on record here.

The target of assay [1] is T1, Heat shock protein 75 kDa, mitochondrial (Homo sapiens, UniProt Q12931).
T1 sequence (Q12931 whole entry): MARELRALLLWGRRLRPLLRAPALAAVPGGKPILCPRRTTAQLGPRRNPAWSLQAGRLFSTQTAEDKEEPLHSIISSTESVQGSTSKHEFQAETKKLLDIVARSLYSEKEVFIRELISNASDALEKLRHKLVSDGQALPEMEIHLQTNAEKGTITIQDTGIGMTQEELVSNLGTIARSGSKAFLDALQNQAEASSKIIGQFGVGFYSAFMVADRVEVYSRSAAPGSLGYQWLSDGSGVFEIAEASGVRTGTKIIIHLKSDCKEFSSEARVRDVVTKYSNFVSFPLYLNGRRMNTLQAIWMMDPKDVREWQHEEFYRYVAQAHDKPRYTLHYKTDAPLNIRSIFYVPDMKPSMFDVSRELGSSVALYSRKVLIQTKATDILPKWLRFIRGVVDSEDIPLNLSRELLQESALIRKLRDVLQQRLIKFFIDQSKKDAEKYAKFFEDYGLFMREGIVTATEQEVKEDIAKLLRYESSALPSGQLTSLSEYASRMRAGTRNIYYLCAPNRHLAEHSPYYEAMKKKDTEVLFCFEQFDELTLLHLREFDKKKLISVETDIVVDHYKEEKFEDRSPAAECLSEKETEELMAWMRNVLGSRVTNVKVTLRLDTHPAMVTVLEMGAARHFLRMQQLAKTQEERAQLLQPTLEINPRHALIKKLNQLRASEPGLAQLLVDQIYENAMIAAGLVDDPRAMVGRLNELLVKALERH
Put plainly: Binding affinity to TRAP1 (unknown origin) by fluorescence polarization competitive binding assay. A general note: In fluorescence polarisation assays a small probe gives low polarisation when free and higher when bound to something large.

In assay [2] the target is T2, Heat shock protein HSP 90-alpha (Homo sapiens, UniProt P07900). As to the kind of experiment: Binding affinity to human HSP90-alpha N-terminal domain assessed as change in entropy at 100 uM by isothermal titration calorimetry. For orientation: ITC needs no label: the signal is the heat of the interaction.
Assay [3] addresses T2, Heat shock protein HSP 90-alpha. Put plainly: Binding affinity to human HSP90-alpha N-terminal domain assessed as change in enthalpy by measuring dissociation constant at 100 uM at 25 degC by isothermal titration calorimetry.
Assay [4] has the same target. As to the kind of experiment: Inhibition of FITC-GDA binding to human HSP90-alpha incubated for 2 hrs followed by FITC-GDA addition and measured after 5 hrs by fluorescence polarization competitive binding assay.
Assay [5] concerns the target Heat shock protein HSP 90-beta (Homo sapiens, UniProt P08238). As to the kind of experiment: Binding affinity to human HSP90-beta by fluorescence polarization competitive binding assay.
For a further assay, the target named is Endoplasmin (Homo sapiens, UniProt P14625). Put plainly: Binding affinity to GRP94 (unknown origin) by fluorescence polarization competitive binding assay.
Endoplasmin, sequence (P14625 whole entry, the tested form may be a part): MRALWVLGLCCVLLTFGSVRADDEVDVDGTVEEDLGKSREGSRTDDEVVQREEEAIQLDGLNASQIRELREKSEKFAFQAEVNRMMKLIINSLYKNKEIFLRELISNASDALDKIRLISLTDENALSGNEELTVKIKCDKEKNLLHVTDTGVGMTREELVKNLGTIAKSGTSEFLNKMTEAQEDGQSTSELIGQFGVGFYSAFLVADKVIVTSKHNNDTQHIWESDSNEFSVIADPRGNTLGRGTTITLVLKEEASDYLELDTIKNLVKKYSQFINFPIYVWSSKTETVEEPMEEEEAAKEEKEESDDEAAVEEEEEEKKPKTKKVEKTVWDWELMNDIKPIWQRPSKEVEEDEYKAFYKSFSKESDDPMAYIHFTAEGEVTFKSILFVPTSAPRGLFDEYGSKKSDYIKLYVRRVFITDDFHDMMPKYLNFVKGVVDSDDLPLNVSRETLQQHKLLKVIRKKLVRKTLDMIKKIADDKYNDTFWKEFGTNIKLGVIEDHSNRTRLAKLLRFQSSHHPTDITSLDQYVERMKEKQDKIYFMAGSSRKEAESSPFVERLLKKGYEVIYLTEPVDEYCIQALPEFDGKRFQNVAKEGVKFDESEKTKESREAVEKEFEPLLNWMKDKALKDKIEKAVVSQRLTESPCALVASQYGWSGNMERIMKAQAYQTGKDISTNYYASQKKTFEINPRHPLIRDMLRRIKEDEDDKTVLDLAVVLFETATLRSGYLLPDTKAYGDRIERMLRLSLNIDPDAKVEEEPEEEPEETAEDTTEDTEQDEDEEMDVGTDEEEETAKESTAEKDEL
For assay [6], the target named is T2, Heat shock protein HSP 90-alpha. Put plainly: Binding affinity to human HSP90-alpha N-terminal domain assessed as gibbs free energy change at 100 uM by isothermal titration calorimetry.
Assay [7] shares this target. As to the kind of experiment: Binding affinity to human HSP90-alpha assessed as change in heat capacity at 20 to 30 degC by isothermal titration calorimetry.
The target is the same in assay [8]. Put plainly: Binding affinity to human HSP90-alpha N-terminal domain assessed as change in enthalpy at 100 uM by isothermal titration calorimetry.
The target is the same in assay [9]. Put plainly: Binding affinity to human HSP90-alpha at protein to compound molar ratio of 1:1.
The target is the same in assay [10]. Put plainly: Binding affinity to human HSP90-alpha N-terminal domain assessed as dissociation constant at 100 uM at 25 degC by isothermal titration calorimetry.

Heat shock protein HSP 90-beta, sequence (P08238 whole entry): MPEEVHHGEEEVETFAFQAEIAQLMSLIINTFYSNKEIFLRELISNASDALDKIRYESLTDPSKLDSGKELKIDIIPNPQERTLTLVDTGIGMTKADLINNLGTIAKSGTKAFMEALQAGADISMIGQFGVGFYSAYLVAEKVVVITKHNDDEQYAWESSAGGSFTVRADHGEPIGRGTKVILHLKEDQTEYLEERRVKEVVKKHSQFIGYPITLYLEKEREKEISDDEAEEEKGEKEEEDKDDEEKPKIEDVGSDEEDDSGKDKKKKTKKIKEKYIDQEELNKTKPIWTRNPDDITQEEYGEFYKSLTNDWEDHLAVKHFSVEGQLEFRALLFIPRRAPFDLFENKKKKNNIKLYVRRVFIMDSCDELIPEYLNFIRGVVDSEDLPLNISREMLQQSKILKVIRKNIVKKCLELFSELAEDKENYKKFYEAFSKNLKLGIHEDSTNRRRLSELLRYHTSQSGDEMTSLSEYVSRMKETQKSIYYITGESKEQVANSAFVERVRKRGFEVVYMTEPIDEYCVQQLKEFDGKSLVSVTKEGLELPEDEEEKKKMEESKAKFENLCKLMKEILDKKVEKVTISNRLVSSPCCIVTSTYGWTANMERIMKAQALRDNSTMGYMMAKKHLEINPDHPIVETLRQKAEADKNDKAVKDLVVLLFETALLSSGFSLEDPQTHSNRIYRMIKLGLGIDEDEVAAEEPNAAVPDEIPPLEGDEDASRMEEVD

Consider `CC(C)c1n[nH]c2nccc(-n3cnc(-c4cccnc4)c3)c12`, for which the IC50 is greater than 300 µM in [1], 293 µM in assay [4], 89 µM in assay [5] and greater than 300 µM on Endoplasmin. In addition, in assay [2], the -TdeltaS is -1.9 kcal/mol. In addition, the Kd in [3] is 2.7 µM. For the same compound, the deltaG in assay [6] is -7.6 kcal/mol. Also, the DeltaCp in assay [7] was found to be 0.56 kcal/mol.K. The deltaH in assay [8] is -5.7 kcal/mol. In addition, the result in [9] was Active.
In the case of `CC(C)c1n[nH]c2nccc(-n3cnc(-c4cnn(C)c4)c3)c12`, the IC50 in [1] is greater than 300 µM; in assay [4], 300 µM; in assay [5] it was 218 µM; on Endoplasmin, greater than 300 µM.
As to `CCc1cc(C(N)=O)ccc1-n1nc(C(C)C)c2c(-n3cnc(-c4cnn(C)c4)c3)ccnc21` [TAS-116], in assay [7], the DeltaCp is -0.29 kcal/mol.K. The Kd in assay [10] stood at 0.17 µM.
With `NC(=O)c1ccc(-c2nccc3c(-n4cnc(-c5ccccc5)c4)ccnc23)cc1NC1CCC(O)CC1` (stereo not given), the Ki was greater than 300 µM in [1], 13 µM in assay [4], 17 µM in assay [5] and greater than 300 µM at Endoplasmin.

The IC50 is the concentration at which inhibition is half-maximal. A high value points to weaker potency. By Kd is commonly meant a measure of binding affinity in units of concentration. By Ki is commonly meant the equilibrium dissociation constant of an inhibitor or competing ligand from its target.
